Laboratory results taken from patent US12721342B2, “Agricultural composition of indoleacetic acid having increased photostability, process for the production and use thereof” (TOTAL BIOTECNOLOGIA INDÚSTRIA E COMÉRCIO S/A, priority 2021, dated 2026).

How the values were obtained:
[1] = Photostability to UV light, first assay (IAA concentration by Salkwolski reagent); format: physicochemical
Description: For validating the formulation that guarantees photostability of the indoleacetic acid phytohormone, two procedures were carried out. In the first assay, the following was compared: i) synthetic IAA with water (with no protection from melanoidins); ii) synthetic IAA with the same culture medium used in the biological IAA production process of the present invention and iii) biological IAA; all samples being subjected to the sterilization process at 121° C. for approximately 1 hour, as claimed for the stabilization of indole compounds due to the production of melanoidins via Maillard reaction. After the period of time required for stabilization, IAA concentrations were assessed using Salkwolski reagent according to the methodology proposed by Glickmann and Dessaux (1994).

[2] = depending on the wavelength and intensity; cited from earlier work

photodegradation ([1]; 1 hour of exposure to UV light, samples sterilized at 121° C. for approximately 1 hour)	degradation by UV light (in words) ([1]; after 4 hours of exposure to UV light)	Structure (SMILES)	reduction of IAA by light decomposition [2]
74.5%	fully degraded	O=C(O)Cc1c[nH]c2ccccc12 [indoleacetic acid]	
		O=C(O)Cc1c[nH]c2ccccc12 [IAA, indoleacetic acid]	up to 90%
